{
  "source": "patent US8445521B2",
  "about": "“Synergistic antimicrobial composition” (Dow GLobal Technologies LLC, priority 2009, dated 2013)",
  "key": {"[1]": {"tested_on": "oil field isolated anaerobic consortium, mainly SRB", "test": "Biocidal efficacy (MBC, complete bacterial kill) against anaerobic bacteria in contaminated salt solution", "format": "cell-based, sulfate reducing bacteria (SRB)", "settings": "40° C., 24 hours", "method": "Inside an anaerobic chamber (BACTRON anaerobic chamber), a deaerated sterile salt solution (3.1183 g of NaCl, 1.3082 mg of NaHCO3, 47.70 mg of KCl, 72.00 mg of CaCl2, 54.49 mg of MgSO4, 172.28 mg of Na2SO4, 43.92 mg of Na2CO3 in 1 L water) was contaminated with an oil field isolated anaerobic consortium, mainly SRB, at final bacterial concentrations of 10^6 to 10^7 CFU/mL. The aliquots of this contaminated water were then treated with NaOPP and DMOZ, or the NaOPP/DMOZ combination, NaOPP and Tris Nitro, or the NaOPP/Tris Nitro combination, NaOPP and HHT, or the NaOPP/HHT combination at different active concentration levels. […] Tables 1-3 summarize the efficacy of each biocide and their blends, and the Synergy Index of each combination."}, "[2]": {"tested_on": "Pseudomonas aeruginosa, ATCC 10145 and Staphylococcus aureus, ATCC 6538", "test": "Biocidal efficacy (MBC, complete bacteria kill) against aerobic bacteria in contaminated NaCl solution", "format": "cell-based", "settings": "37° C., 24 hours", "method": "A sterile NaCl solution (0.85%) was contaminated with Pseudomonas aeruginosa, ATCC 10145 and Staphylococcus aureus, ATCC 6538 at final bacterial concentration of ca. 10^6 CFU/mL. The aliquots of this contaminated water were then treated with NaOPP and Tris Nitro, or the NaOPP/Tris Nitro combination, NaOPP and DMOZ or the NaOPP/DMOZ combination at different active concentration levels. After the mixtures were incubated at 37° C. for 24 hours, the biocidal efficacy was determined by minimum tested biocide concentration for complete bacteria kill in the aliquots. Tables 4 and 5 summarize the efficacy of each biocide and their blends, and the Synergy Index of each combination."}, "[3]": {"settings": "DMOZ alone or DMOZ part of NaOPP/DMOZ blend"}, "[4]": {"settings": "NaOPP alone or NaOPP part of NaOPP/DMOZ blend"}, "[5]": {"settings": "NaOPP alone or NaOPP part of NaOPP/Tris Nitro blend"}, "[6]": {"settings": "Tris Nitro alone or Tris Nitro part of NaOPP/Tris Nitro blend"}},
  "data": [
    {"compound": "CC1(C)COCN1", "note": "[DMOZ, 4,4-dimethyloxazolidine]", "values": [
      {"measurement": "MBC (active ppm) DMOZ", "setting": "[1]; [3]", "value": 74.1, "unit": "active ppm"},
      {"measurement": "Average MBC (active ppm) DMOZ", "setting": "[2]; [3]", "value": 86.1, "unit": "active ppm"}
    ]},
    {"compound": "OCCN1CN(CCO)CN(CCO)C1", "note": "[HHT, hexahydro-1,3,5-tris(2-hydroxyethyl)-s-triazine]", "values": [
      {"measurement": "MBC (active ppm) HHT", "setting": "[1]; HHT alone or HHT part of NaOPP/HHT blend", "value": 111.1, "unit": "active ppm"}
    ]},
    {"compound": "[Na+].[O-]c1ccccc1-c1ccccc1", "note": "[NaOPP, sodium o-phenylphenylate]", "values": [
      {"measurement": "MBC (active ppm) NaOPP", "setting": "[1]; [4]", "value": 333.3, "unit": "active ppm"},
      {"measurement": "MBC (active ppm) NaOPP", "setting": "[1]; NaOPP alone or NaOPP part of NaOPP/HHT blend", "value": 500, "unit": "active ppm"},
      {"measurement": "MBC (active ppm) NaOPP", "setting": "[1]; [5]", "value": 500, "unit": "active ppm"},
      {"measurement": "Average MBC (active ppm) NaOPP", "setting": "[2]; [4]", "value": 292.9, "unit": "active ppm"},
      {"measurement": "MBC (active ppm) NaOPP", "setting": "[2]; [5]", "value": 266.3, "unit": "active ppm"}
    ]},
    {"compound": "O=[N+]([O-])C(CO)(CO)CO", "note": "[Tris Nitro, tris(hydroxymethyl)nitromethane]", "values": [
      {"measurement": "MBC (active ppm) Tris Nitro", "setting": "[1]; [6]", "value": 44.4, "unit": "active ppm"},
      {"measurement": "MBC (active ppm) Tris Nitro", "setting": "[2]; [6]", "value": 25.1, "unit": "active ppm"}
    ]}
  ]
}
